Assay [1] deals with T1, Serine/threonine-protein kinase Nek2 (Homo sapiens) (UniProt P51955).
T1 sequence (whole entry): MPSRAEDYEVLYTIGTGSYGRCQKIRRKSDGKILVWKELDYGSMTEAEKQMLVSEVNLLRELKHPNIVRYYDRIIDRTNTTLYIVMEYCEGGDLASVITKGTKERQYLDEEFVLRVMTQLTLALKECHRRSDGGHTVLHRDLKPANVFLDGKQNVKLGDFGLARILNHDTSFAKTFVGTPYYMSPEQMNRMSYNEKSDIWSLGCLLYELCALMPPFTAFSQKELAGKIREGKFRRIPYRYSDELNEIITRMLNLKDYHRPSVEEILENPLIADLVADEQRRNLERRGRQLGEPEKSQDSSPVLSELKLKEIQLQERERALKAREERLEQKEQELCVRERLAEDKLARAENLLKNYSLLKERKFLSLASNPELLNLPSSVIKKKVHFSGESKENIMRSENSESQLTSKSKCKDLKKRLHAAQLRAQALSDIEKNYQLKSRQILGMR
Conditions: at 10 µM.

Assay [2] deals with T2, Dual specificity mitogen-activated protein kinase kinase 4 (Homo sapiens) (UniProt P45985).
T2 sequence (whole entry): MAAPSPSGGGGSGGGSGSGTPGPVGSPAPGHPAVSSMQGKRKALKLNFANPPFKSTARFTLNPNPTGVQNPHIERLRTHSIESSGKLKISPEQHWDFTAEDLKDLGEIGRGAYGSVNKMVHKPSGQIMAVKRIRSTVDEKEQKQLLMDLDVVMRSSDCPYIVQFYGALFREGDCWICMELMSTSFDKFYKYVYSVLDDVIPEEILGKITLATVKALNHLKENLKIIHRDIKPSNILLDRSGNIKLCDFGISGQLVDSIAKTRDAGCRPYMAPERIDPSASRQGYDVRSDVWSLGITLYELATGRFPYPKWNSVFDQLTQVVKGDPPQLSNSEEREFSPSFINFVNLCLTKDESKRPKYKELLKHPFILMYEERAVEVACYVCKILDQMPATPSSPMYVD
Nature of the assay: Selectivity interaction (Ambit KINOMEscan and KiNATiv profiling in Jurkat cells) EUB0000090b MAP2K4. Conditions: at 1 µM. It counts as cell-based.

The target in assay [3] is Death-associated protein kinase 1 (Homo sapiens, UniProt P53355). Conditions: at 10 µM.
Assay [4] has as its target T3, Serine/threonine-protein kinase 36 (Homo sapiens) (UniProt Q9NRP7).
T3 sequence (whole entry): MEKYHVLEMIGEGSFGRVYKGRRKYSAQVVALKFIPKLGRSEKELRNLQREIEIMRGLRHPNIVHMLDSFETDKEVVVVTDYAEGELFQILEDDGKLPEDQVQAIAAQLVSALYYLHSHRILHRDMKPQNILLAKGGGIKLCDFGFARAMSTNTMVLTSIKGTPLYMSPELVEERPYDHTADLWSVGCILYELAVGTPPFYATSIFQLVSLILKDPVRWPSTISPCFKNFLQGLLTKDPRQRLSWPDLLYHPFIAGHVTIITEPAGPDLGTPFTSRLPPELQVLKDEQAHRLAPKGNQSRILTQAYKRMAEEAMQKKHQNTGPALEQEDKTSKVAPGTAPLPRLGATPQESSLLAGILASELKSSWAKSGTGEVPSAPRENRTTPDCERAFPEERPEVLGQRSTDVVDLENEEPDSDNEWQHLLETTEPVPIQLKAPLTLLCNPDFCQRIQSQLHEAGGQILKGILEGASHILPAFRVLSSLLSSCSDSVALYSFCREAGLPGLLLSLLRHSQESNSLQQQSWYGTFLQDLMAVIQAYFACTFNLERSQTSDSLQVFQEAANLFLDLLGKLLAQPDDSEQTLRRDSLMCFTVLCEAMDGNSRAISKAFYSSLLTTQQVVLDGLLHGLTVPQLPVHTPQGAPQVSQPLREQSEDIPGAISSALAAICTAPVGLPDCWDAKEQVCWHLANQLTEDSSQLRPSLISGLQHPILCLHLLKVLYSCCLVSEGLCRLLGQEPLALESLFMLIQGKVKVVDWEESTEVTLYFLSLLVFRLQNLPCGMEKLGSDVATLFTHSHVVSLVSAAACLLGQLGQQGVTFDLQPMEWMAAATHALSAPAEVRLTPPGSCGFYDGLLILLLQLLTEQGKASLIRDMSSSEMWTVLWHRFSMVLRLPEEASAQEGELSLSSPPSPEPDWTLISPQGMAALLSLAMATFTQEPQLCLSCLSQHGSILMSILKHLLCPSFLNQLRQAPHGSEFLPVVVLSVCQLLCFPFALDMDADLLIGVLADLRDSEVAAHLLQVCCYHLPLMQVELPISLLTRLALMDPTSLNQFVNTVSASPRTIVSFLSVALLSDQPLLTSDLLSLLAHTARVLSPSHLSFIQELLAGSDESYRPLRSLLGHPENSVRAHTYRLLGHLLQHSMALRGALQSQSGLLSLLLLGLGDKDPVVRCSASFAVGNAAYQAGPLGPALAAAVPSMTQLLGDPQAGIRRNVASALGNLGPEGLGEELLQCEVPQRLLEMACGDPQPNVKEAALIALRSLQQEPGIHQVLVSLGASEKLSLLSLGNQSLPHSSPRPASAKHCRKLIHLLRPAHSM
Nature of the assay: Selectivity interaction (KinomeScan (DiscoverX)) EUB0001049a STK36. As to conditions: at 1 µM.

The target in assay [5] is DNA (cytosine-5)-methyltransferase 3B (Homo sapiens) (UniProt Q9UBC3). Briefly: Selectivity interaction (PWWP, WD40, and Tudor domain panel (DSLS measurements, literature)) EUB0000270b DNMT3B.
Assay [6] concerns the target Cyclin-dependent kinase 8 (Homo sapiens, UniProt P49336). Briefly: Selectivity interaction (KinomeScan (DiscoverX)) EUB0000045b CDK8.
The target of assay [7] is Mitogen-activated protein kinase 4 (Homo sapiens) (UniProt P31152). Nature of the assay: Selectivity interaction (KinomeScan (DiscoverX)) EUB0000666a MAPK4. As to conditions: at 10 µM.
Assay [8] addresses Calcium/calmodulin-dependent protein kinase type 1D (Homo sapiens) (UniProt Q8IU85). Nature of the assay: Selectivity interaction (ActivX KiNativ screen (kinase selectivity in THP-1 cell lysates)) EUB0000639a CAMK1D. Conditions: lysate, at 0.04 µM. It counts as subcellular.
Assay [9] concerns the target Calcium/calmodulin-dependent protein kinase type II subunit gamma (Homo sapiens) (UniProt Q13555). Nature of the assay: Selectivity interaction (ActivX KiNativ screen (kinase selectivity in THP-1 cell lysates)) EUB0000639a CAMK2G. It counts as subcellular. Conditions: lysate.
In assay [10] the target is eIF-2-alpha kinase GCN2 (Homo sapiens) (UniProt Q9P2K8). Briefly: Selectivity interaction (ActivX KiNativ screen (ex vivo kinase selectivity in human PBMCs)) EUB0001619a EIF2AK4. It is filed as cell-based. Conditions: PBMC, at 1 µM.
Assay [11] concerns the target Fibroblast growth factor receptor 1 (Homo sapiens, UniProt P11362). Briefly: Selectivity interaction (Kinase panel (literature)) EUB0001199aCl FGFR1. Conditions: at 1 µM.

Calcium/calmodulin-dependent protein kinase type II subunit gamma (Homo sapiens), sequence (Q13555 whole entry): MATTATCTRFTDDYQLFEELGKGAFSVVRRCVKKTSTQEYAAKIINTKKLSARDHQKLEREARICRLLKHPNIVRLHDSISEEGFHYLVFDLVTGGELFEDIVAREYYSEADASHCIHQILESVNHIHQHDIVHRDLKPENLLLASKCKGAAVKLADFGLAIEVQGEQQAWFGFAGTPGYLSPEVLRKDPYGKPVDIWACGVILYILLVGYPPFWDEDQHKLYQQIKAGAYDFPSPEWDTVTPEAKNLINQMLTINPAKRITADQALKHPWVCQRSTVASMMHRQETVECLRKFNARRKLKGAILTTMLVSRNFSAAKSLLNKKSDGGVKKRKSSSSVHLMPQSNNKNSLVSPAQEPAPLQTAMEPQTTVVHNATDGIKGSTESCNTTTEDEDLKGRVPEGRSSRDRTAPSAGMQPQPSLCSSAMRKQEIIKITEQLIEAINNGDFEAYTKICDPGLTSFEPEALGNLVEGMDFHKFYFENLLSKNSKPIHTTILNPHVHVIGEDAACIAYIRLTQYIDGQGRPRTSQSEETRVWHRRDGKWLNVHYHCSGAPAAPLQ
Cyclin-dependent kinase 8, sequence (P49336 whole entry): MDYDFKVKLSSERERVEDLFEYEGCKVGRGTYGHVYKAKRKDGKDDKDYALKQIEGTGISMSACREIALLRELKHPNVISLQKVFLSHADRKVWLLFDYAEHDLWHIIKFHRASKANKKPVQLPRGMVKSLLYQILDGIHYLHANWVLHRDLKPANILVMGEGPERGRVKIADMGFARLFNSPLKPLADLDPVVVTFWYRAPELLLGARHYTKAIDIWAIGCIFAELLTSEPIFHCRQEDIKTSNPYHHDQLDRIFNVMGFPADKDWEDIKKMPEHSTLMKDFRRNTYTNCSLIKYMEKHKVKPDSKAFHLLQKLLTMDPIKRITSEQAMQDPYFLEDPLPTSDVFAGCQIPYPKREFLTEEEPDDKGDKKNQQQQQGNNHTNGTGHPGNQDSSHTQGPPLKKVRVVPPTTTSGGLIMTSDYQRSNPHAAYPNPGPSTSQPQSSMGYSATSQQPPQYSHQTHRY
Fibroblast growth factor receptor 1, sequence (P11362 22-822 limits assumed): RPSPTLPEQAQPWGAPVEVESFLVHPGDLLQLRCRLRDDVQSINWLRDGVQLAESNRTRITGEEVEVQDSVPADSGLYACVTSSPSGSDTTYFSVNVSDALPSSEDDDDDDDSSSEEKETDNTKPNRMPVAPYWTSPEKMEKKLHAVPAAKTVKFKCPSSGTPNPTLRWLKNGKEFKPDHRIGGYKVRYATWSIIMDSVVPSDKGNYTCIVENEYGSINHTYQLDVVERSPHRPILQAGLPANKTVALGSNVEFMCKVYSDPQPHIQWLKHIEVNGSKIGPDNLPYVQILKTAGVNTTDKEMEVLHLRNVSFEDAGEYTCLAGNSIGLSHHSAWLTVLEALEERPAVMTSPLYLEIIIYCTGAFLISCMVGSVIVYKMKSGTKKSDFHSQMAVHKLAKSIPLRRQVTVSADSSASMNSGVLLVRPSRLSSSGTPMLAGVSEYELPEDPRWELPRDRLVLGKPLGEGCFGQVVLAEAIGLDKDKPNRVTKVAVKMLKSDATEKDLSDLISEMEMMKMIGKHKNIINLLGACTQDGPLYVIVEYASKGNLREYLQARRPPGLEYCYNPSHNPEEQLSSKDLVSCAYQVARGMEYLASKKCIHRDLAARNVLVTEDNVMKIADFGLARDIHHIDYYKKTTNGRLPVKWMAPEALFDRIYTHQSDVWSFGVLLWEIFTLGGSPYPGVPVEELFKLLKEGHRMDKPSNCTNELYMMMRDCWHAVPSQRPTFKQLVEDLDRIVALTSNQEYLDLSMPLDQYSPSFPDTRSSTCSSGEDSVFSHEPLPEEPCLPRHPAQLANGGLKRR
Death-associated protein kinase 1, sequence (P53355 whole entry, looked up): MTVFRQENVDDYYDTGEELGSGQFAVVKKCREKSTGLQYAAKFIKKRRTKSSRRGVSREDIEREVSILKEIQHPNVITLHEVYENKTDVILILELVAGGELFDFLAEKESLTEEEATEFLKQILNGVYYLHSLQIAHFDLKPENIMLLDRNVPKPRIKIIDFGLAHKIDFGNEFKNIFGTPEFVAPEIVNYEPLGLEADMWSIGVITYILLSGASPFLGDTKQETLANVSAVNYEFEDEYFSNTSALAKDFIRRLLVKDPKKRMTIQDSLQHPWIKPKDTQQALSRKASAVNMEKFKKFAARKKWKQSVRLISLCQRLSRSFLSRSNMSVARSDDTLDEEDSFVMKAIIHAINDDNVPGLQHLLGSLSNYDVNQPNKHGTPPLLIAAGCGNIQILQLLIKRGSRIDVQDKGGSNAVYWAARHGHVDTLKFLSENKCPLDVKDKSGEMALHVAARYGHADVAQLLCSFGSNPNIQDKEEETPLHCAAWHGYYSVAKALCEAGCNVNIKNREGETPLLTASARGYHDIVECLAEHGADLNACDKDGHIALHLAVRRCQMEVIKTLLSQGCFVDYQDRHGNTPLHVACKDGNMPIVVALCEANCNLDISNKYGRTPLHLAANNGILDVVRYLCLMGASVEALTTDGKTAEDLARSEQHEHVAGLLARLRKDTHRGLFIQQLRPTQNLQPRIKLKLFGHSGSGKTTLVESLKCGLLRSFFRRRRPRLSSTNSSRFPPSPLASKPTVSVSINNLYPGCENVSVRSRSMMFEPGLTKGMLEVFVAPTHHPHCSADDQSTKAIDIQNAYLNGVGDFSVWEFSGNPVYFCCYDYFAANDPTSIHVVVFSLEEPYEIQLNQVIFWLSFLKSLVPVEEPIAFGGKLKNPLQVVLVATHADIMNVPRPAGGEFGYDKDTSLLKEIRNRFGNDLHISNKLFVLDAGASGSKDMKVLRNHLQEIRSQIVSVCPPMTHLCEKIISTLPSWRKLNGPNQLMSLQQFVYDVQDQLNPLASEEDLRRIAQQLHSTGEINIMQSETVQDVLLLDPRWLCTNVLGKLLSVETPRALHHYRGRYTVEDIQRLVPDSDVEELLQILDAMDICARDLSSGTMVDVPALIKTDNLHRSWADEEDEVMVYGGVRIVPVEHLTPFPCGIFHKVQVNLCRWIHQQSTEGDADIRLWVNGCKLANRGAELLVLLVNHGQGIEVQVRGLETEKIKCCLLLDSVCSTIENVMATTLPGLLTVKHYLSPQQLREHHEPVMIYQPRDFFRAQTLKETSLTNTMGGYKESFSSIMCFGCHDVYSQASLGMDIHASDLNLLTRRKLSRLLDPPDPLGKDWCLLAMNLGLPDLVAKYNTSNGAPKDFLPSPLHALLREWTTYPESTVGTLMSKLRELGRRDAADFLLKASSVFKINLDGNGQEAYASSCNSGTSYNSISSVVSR
Calcium/calmodulin-dependent protein kinase type 1D (Homo sapiens), sequence (Q8IU85 whole entry, looked up): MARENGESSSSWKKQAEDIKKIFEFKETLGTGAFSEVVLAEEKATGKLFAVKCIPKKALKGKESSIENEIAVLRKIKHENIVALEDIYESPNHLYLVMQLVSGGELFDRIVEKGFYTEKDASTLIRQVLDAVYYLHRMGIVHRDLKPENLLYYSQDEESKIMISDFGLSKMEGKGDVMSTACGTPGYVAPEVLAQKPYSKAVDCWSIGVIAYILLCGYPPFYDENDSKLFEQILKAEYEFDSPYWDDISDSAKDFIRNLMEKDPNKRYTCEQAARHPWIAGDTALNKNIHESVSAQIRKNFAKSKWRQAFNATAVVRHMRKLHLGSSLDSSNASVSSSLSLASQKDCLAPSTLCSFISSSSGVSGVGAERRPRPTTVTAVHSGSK
Mitogen-activated protein kinase 4 (Homo sapiens), sequence (P31152 whole entry): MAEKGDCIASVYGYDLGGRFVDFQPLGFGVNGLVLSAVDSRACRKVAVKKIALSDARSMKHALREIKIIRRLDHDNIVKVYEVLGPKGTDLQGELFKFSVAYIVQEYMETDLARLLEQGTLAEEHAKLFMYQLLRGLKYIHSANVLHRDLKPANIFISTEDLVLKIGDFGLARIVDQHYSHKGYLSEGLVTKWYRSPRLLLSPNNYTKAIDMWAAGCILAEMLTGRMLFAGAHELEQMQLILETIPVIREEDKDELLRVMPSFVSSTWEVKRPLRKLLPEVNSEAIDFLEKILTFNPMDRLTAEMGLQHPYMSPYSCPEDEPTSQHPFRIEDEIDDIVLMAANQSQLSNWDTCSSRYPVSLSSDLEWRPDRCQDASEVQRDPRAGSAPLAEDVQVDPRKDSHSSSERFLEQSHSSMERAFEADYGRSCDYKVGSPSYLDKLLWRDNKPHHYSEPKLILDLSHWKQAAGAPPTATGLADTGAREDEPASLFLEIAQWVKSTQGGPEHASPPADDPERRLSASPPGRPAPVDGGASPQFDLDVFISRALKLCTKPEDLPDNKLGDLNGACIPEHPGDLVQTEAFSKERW

Consider `Cc1cc([C@@H](C)Nc2ccccc2C(=O)O)c2nc(N3CCOCC3)cc(=O)n2c1` [AZD-6482], for which, in assay [1], the % of control was found to be 71%.

For `CN(C)C/C=C/C(=O)Nc1ccc(C(=O)N2CCCC(Nc3ncc(Cl)c(-c4c[nH]c5ccccc45)n3)C2)cc1` (stereo unspecified), the % of control in assay [2] was determined as 70%.

With `CCN(CC)CCCCNc1ncc2cc(-c3cc(OC)cc(OC)c3)c(NC(=O)NC(C)(C)C)nc2n1`, the % of control in [3] was found to be 100%.

On to `COc1cc(Nc2nc(C)cc(-c3cnn4nc(OC)ccc34)n2)cc(C(F)(F)F)c1`, for which the % of control in assay [4] worked out at 99%.

`Cc1cc(CN)cc(C)c1-c1ncn(C)c1-c1cncn1C` gave a dTagg in [5] of 0 K.

Regarding `C=CC(=O)Nc1cc(-n2c(=O)ccc3cnc4ccc(-c5ccc(NS(C)(=O)=O)cc5)cc4c32)ccc1C`, the % of control was 76% in assay [6] (at 1 µM) and 62% in assay [6] (at 10 µM).

Consider `O=C(NOC[C@H](O)CO)c1ccc(F)c(F)c1Nc1ccc(I)cc1F`, for which, in [7], the % of control is 77%.

Consider `CC[C@@H]1[C@H](F)C(=O)N[C@@H]1COc1nccc2cc(C(N)=O)c(OC)cc12` [ZIMLOVISERTIB], for which the % of inhibition was -15.2% in [8]; -1% in [9] (at 0.01 µM); 3.3% in assay [9] (at 0.04 µM); 10% in assay [9] (at 0.2 µM); 35.2% in assay [9] (at 1 µM); 63% in assay [9] (at 5 µM).

Take `N#Cc1cccc(-c2c[nH]c3ncnc(N4CCOCC4)c23)c1`: the % of inhibition in assay [10] came to 1%.

In the case of `CN1Cc2nccc(-c3cn(C)nc3-c3ccc(F)cc3)c2C1=O`, in assay [11], the % of inhibition came to 3%.

(Values after ChEMBL document CHEMBL5465560, “Selectivity Literature for EUbOPEN Chemogenomic Library” (2024).)
